Values of other authors in paper PMC4027949 (ACS Chemical Biology, 2014).

Key:
PI3K = details: read-out: IC50 PI3K; Ibrutinib comparison values
P38 = details: read-out: IC50 P38; Ibrutinib comparison values
PDGFRa = PDGFRa (Homo sapiens, UniProt P16234); details: read-out: IC50 PDGFRa; Ibrutinib comparison values
Chain of PDGFRa (P16234 24-1089, species assumed): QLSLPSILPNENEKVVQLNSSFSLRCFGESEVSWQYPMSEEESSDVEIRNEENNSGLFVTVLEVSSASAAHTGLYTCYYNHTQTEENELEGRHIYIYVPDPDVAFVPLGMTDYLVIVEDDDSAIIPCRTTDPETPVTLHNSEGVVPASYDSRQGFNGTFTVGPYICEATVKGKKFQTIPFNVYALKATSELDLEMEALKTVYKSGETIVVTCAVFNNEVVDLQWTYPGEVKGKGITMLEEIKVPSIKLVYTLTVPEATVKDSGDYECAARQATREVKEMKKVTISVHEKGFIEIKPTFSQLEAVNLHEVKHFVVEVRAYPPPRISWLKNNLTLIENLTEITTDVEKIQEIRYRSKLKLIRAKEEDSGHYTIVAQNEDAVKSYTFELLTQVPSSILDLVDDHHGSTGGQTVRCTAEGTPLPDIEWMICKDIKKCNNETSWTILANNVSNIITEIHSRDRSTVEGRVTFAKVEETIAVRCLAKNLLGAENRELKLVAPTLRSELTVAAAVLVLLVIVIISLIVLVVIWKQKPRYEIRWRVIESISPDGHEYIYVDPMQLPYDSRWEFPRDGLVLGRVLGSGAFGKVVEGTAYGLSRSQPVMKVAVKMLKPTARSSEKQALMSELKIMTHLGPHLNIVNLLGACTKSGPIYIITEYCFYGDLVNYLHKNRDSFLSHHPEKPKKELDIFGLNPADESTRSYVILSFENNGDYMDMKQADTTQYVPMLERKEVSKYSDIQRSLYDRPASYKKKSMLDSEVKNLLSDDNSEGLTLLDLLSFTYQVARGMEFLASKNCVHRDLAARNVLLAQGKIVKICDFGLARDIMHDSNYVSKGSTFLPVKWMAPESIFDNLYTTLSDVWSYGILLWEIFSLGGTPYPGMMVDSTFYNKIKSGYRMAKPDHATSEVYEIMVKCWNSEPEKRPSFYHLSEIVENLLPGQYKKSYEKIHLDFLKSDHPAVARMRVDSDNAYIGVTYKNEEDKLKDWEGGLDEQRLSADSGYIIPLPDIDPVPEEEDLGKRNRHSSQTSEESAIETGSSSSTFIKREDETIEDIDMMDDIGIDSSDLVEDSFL

For C=CC(=O)N1CCC[C@@H](n2nc(-c3ccc(Oc4ccccc4)cc3)c3c(N)ncnc32)C1 [Ibrutinib], the IC50 (PI3K) is listed as greater than 10 µM, the IC50 (P38) is listed as greater than 10 µM and the IC50 (PDGFRa) is listed as 0.718 µM.
